Assay results: PMC12096669, “Structural isomerisation affects the antitubercular activity of adamantyl-isoxyl adducts” (Journal of Enzyme Inhibition and Medicinal Chemistry, 2025)
In brackets after ≈: the same amount, converted by molar mass. Where two headings read alike, the source gives them in different places.

What was measured:
Mtb mc^27902 pMV261 [1] = test: microbe, parasite or virus in culture; format: cell-based; settings: Mycobacterium tuberculosis
B. cereus NCTC 7464 = test: Non-mycobacterial REMA assay; format: cell-based; settings: Bacillus cereus, NCTC7464, read-out: Minimum inhibitory concentration 95%
S. pyogenes NCTC 8198 = test: Non-mycobacterial REMA assay; format: cell-based; settings: Streptococcus pyogenes, NCTC8198, read-out: Minimum inhibitory concentration 95%
S. agalactiae NCTC 8181 = test: Non-mycobacterial REMA assay; format: cell-based; settings: Streptococcus agalactiae, NCTC8181, read-out: Minimum inhibitory concentration 95%
E. faecalis NCTC 775 = test: Non-mycobacterial REMA assay; format: cell-based; settings: Enterococcus faecalis, NCTC775, read-out: Minimum inhibitory concentration 95%
E. faecium NCTC 7171 = test: Non-mycobacterial REMA assay; format: cell-based; settings: Enterococcus faecium, NCTC7171, read-out: Minimum inhibitory concentration 95%
S. aureus NCTC 2981 = test: Non-mycobacterial REMA assay; format: cell-based; settings: Staphylococcus aureus, NCTC2981, read-out: Minimum inhibitory concentration 95%
K. pneumoniae NCTC 9633 = test: Non-mycobacterial REMA assay; format: cell-based; settings: Klebsiella pneumoniae, NCTC9633, read-out: Minimum inhibitory concentration 95%
A. baumannii NCTC 12156 = test: Non-mycobacterial REMA assay; format: cell-based; settings: Acinetobacter baumannii, NCTC12156, read-out: Minimum inhibitory concentration 95%
P. aeruginosa DSM 19880 = test: Non-mycobacterial REMA assay; format: cell-based; settings: Pseudomonas aeruginosa, DSM19880, read-out: Minimum inhibitory concentration 95%
E. cloacae NCTC 10005 = test: Non-mycobacterial REMA assay; format: cell-based; settings: Enterobacter cloacae, NCTC10005, read-out: Minimum inhibitory concentration 95%
E. coli K12 = test: Non-mycobacterial REMA assay; format: cell-based; settings: Escherichia coli, read-out: Minimum inhibitory concentration 95%
Protocol: (§1) Bacterial minimum inhibition concentrations (MIC) were determined using the Resazurin Microtiter Assay (REMA) method according to Palomino et al.[28] Stock solutions of the tested compounds were prepared in sterile dimethyl sulfoxide (DMSO), then diluted in 7H9OPALPen^1Cyc^10(Kan^25) to obtain a final drug concentration range of 32–0.032 μg/mL. A suspension of the test Mycobacterium was cultured in 7H9OPALPen^1Cyc^10(Kan^25) containing 0.05% v/v Tween^80 for one week at 37 °C, 5% CO2. The bacterial suspension was adjusted to 0.5 McFarland and diluted in 7H9OPALPen^1Cyc^10(Kan^25) 1:25. 100 μL of the inoculum was added to each well of a 96-well microplate together with 100 μL of the compound titration. The plate was incubated at 37 °C, 5% CO2. After 5 days, 10.5 μL 0.1% (w/v) sterile resazurin (solubilised in sterile PBS containing 0.02% v/v Tween^80) was added. Reduced resazurin was detected using fluorescence (Ex/Em 530/590 nm) in a FLUOstar Optima, BMG Labtech. All titre measurements were plotted in SigmaPlot™ and 4-parameter logistic (4PL) model regressions conducted. The relative MIC95 of each curve was calculated and averaged (Table 1). Testing was performed in duplicate with two independent biological repeats. […] Though, for these cultures, dilutions were performed at 1:125 prior to inoculation of the plate and incubation for 4 h (Supplementary Table 3). Known antitubercular agents used in this study were rifampicin (RIF), isoniazid (INH), ISO, EMB, ethionamide (ETH), linezolid (LZD), delamanid (DEL) and moxifloxacin (MOX).

S. enterica NCTC 6754 = test: Non-mycobacterial REMA assay; format: cell-based; settings: Salmonella enterica, NCTC6754, read-out: Minimum inhibitory concentration 95%
Protocol: as §1

[2] = tested on: RAW264.7 murine macrophage cells; test: cells; format: cell-based; settings: for viability at 100 µM / IC50: Mus musculus; for viability at 100 µM: RAW264.7, 96 h, read-out: MTS percentage survival @ 100 µM; for IC50: RAW264.7 macrophages, 0 to 100 µM, read-out: IC50 (cell viability, MTS assay); for selectivity index (SI): from RAW264.7 IC50 and Mtb MIC95
[3] = tested on: HepG2 human liver cancer cell line; test: MTS cytotoxicity assay, liver cells; format: cell-based; settings: 96 h, read-out: MTS percentage survival @ 100 µM
[4] = tested on: AC10 hybrid adult ventricular cardiomyocytes; test: MTS cytotoxicity assay, cardiomyocytes; format: cell-based; settings: Homo sapiens, AC10 cardiac, 96 h, read-out: MTS percentage survival @ 100 µM
Mtb mc^27902 pMV261 [5] = format: cell-based, Mycobacterium tuberculosis; settings: in the presence of glucose; 37 °C, 30 min
Mtb mc^27902 pMV261 [6] = format: cell-based, Mycobacterium tuberculosis; settings: for TMM levels (TLC): at the highest concentrations
Mtb mc^27902 pMV261 [7] = test: Synergy (two-drug checkerboard style) assay; format: cell-based, Mycobacterium tuberculosis; settings: in combination with RIF
M. bovis BCG = settings: library of 52,000 compounds; cited from earlier work
[8] = mc^27902 pMV261, REMA, read-out: Mtb MIC95
[9] = RAW264.7 macrophage, 100 µM, 96 h
[10] = values used for the SI, in brackets, […], read-out: MIC95
[11] = values used for the SI, […], read-out: MIC95

Row | Compound | MIC (Mtb mc^27902 pMV261 [1]; [8]) [µg/mL] | MIC (B. cereus NCTC 7464) [µg/mL] | MIC (S. pyogenes NCTC 8198) [µg/mL] | MIC (S. agalactiae NCTC 8181) [µg/mL] | MIC (E. faecalis NCTC 775) [µg/mL] | MIC (E. faecium NCTC 7171) [µg/mL] | MIC (S. aureus NCTC 2981) [µg/mL] | MIC (K. pneumoniae NCTC 9633) [µg/mL] | MIC (A. baumannii NCTC 12156) [µg/mL] | MIC (P. aeruginosa DSM 19880) [µg/mL] | MIC (E. cloacae NCTC 10005) [µg/mL] | MIC (E. coli K12) [µg/mL] | MIC (S. enterica NCTC 6754) [µg/mL] | viability at 100 µM [2, 9] [%] | IC50 [2] [µM] | viability at 100 µM [3] [%] | viability at 100 µM [4] [%] | other results
1 | CC(C)CCOc1ccc(NC(=S)NC23CC4CC(CC(C4)C2)C3)cc1 [Ad-1-ISO, 1-((3s,5s,7s)-adamantan-1-yl)-3–(4-(isopentyloxy)phenyl)thiourea] | 1.08 | > 32 | > 32 | > 32 | > 32 | > 32 | > 32 | > 32 | > 32 | > 32 | > 32 | > 32 | > 32 | 73.8 ± 7.5 | > 100 | 16.1 ± 7.2 | 55 ± 13.2 | selectivity index (SI) [2]: > 100; efflux of EtBr (Mtb mc^27902 pMV261 [5]): significantly increased the overall efflux of EtBr; effect on mycolic acid biosynthesis (FAMEs/MAMEs, TLC/autoradiography) (Mtb mc^27902 pMV261 [6]): Depletion of mycolates into the cell wall was only observed at the highest concentrations tested; TMM levels (TLC) (Mtb mc^27902 pMV261 [6]): slight increase in the TMM levels
2 | CC(C)CCOc1ccc(NC(=S)NC2C3CC4CC(C3)CC2C4)cc1 (stereo not drawn) [Ad-2-ISO, 1-((1r,3r,5r,7r)-adamantan-2-yl)-3–(4-(isopentyloxy)phenyl)thiourea] | 2.88 | > 32 | > 32 | > 32 | > 32 | > 32 | > 32 | > 32 | > 32 | > 32 | > 32 | > 32 | > 32 | 22.5 ± 0.9 | 95.3 | 13.4 ± 5.1 | 51.1 ± 17.7 | FICI (Mtb mc^27902 pMV261 [7]): 0.52; efflux of EtBr (Mtb mc^27902 pMV261 [5]): significantly increased the overall efflux of EtBr; TDM and glucose monomycolate levels (TLC) (Mtb mc^27902 pMV261 [6]): decrease in TDM and glucose monomycolate; effect on mycolic acid biosynthesis (FAMEs/MAMEs, TLC/autoradiography) (Mtb mc^27902 pMV261 [6]): more significant reduction in radiolabel incorporation; TMM levels (TLC) (Mtb mc^27902 pMV261 [6]): slight increase in the TMM levels
3 | CC[C@@H](CO)NCCN[C@@H](CC)CO [EMB, Ethambutol] | 1.99 | > 32 | > 32 | > 32 | > 32 | > 32 | > 32 | > 32 | > 32 | > 32 | > 32 | > 32 | > 32 | 88.5 ± 8.6 | – | 95.2 ± 6 | 93.7 ± 2.7 | –
4 | CCc1cc(C(N)=S)ccn1 [ETH, ethionamide] | – | > 32 | > 32 | > 32 | > 32 | > 32 | > 32 | > 32 | > 32 | > 32 | > 32 | > 32 | > 32 | – | – | 92.7 ± 7 | 90.5 ± 4.7 | MIC (Mtb mc^27902 pMV261 [1]; read-out: Mtb MIC95): 1.05 µg/mL; viability at 100 µM [2]: 100 ± 5.6%
5 | NNC(=O)c1ccncc1 [INH, isoniazid] | 0.04 | > 32 | > 32 | > 32 | > 32 | > 32 | > 32 | > 32 | > 32 | > 32 | > 32 | > 32 | > 32 | 96.3 ± 2 | – | 97 ± 3.8 | 92.6 ± 1.2 | –
6 | CC(=O)NC[C@H]1CN(c2ccc(N3CCOCC3)c(F)c2)C(=O)O1 [LZD, linezolid] | 0.91 | 1.75 (≈ 5.2 µM) | 0.543 (≈ 1.61 µM) | 2.1 (≈ 6.23 µM) | 0.921 (≈ 2.73 µM) | 0.158 (≈ 0.468 µM) | 23.7 (≈ 70.3 µM) | > 32 | 31.1 (≈ 92.1 µM) | > 32 | > 32 | > 32 | > 32 | 38.3 | 16.2 | 105 ± 5.1 | 103 ± 1.8 | MIC (Mtb mc^27902 pMV261 [1]; [10]): 0.55 µg/mL; MIC (Mtb mc^27902 pMV261 [1]; [11]): 1.63 µM
7 | CO[C@H]1/C=C/O[C@@]2(C)Oc3c(C)c(O)c4c(O)c(c(/C=N/N5CCN(C)CC5)c(O)c4c3C2=O)NC(=O)/C(C)=C\C=C\[C@H](C)[C@H](O)[C@@H](C)[C@@H](O)[C@@H](C)[C@H](OC(C)=O)[C@@H]1C [RIF, rifampicin] | 0.04 | 0.045 (≈ 0.0547 µM) | 6.16 (≈ 7.48 µM) | 0.08 (≈ 0.0972 µM) | > 12.8 | 1.73 (≈ 2.11 µM) | < 0.0125 | > 12.8 | 1.36 (≈ 1.66 µM) | > 12.8 | > 12.8 | 3.03 (≈ 3.69 µM) | 12.8 (≈ 15.5 µM) | 66.3 ± 5 | – | 47.7 ± 3.2 | 40.7 ± 6.6 | –
8 | CC(C)=CCC/C(C)=C/CNCCNC1C2CC3CC(C2)CC1C3 (stereo not drawn) [SQ109, N-Adamantan-2-yl-N’-((E)-3,7-dimethylocta-2,6-dienyl)ethane-1,2-diamine] | 0.33 | > 32 | > 32 | > 32 | 21.1 (≈ 63.8 µM) | 20.1 (≈ 60.8 µM) | 16.9 (≈ 51 µM) | > 32 | 20.7 (≈ 62.7 µM) | > 32 | 16.8 (≈ 50.9 µM) | 17.4 (≈ 52.5 µM) | > 32 | 61.1 ± 2.9 | > 100 | 15.1 ± 4.1 | 40.2 ± 2.3 | MIC (Mtb mc^27902 pMV261 [1]; [10]): 0.12 µg/mL; MIC (Mtb mc^27902 pMV261 [1]; [11]): 0.36 µM; selectivity index (SI) [2]: > 100
9 | O=C(N/N=C/c1cccc(F)c1)C12CC3CC(CC(C3)C1)C2 [adamantyl-hydrazone] | – | – | – | – | – | – | – | – | – | – | – | – | – | – | – | – | – | MIC (M. bovis BCG): < 2 µg/mL
